Assay results: patent publication US20260103679A1, “COMPOSITIONS COMPRISING REGULATORY T CELLS AND METHODS OF USING THE SAME” (Cellenkos, Inc., priority 2021, published 2026)

System: xenogeneic mouse graft versus host disease (GVHD) model
Conditions: in vivo
Method: FIG. 33 depicts a schematic for treatment of a xenogeneic mouse graft versus host disease (GVHD) model with a ruxolitinib and activated Treg cells regimen. PBMC=peripheral blood mononuclear cells.
A xenogeneic mouse graft versus host disease (GVHD) model was treated with a ruxolitinib and activated CB Treg cells regimen, as depicted in FIG. 33. NSG mice underwent sublethal irradiation on day −1 followed by injection of 1×10^7 donor peripheral blood (PB) mononuclear cells (MNCs) on day 0. Oral ruxolitinib at 1 mg daily was fed continuously to the mice in the presence or absence of 1×10^7 CB Treg cells, tagged with CellTrace™ Violet dye (ThermoFisher), administered on days +4, +7, +11, +18. Mice were followed every other day for weight, GVHD score and survival. Serial blood draws were performed to analyze for cell compartment and cytokine assays.

## N#CC[C@H](C1CCCC1)n1cc(-c2ncnc3[nH]ccc23)cn1 [ruxolitinib]
  CB Treg persistence: improved
